Common to all, as to type: functional
Common to all, as to conditions: read-out: IZ

One assay relates to Candida albicans. Briefly: Antifungal activity against Candida albicans at 100 ug/ml by cup-plate method.
The test system of another assay is Bacillus subtilis. Briefly: Antibacterial activity against Bacillus subtilis at 100 ug/ml by cup plate method.
A further assay relates to Staphylococcus aureus. Briefly: Antibacterial activity against Staphylococcus aureus at 100 ug/ml by cup-plate method.
The subject of the next assay is Escherichia coli. The assay can be described thus: Antibacterial activity against Escherichia coli at 100 ug/ml by cup-plate method.
In the next assay the test system is Pseudomonas aeruginosa. The assay can be described thus: Antibacterial activity against Pseudomonas aeruginosa at 100 ug/ml by cup-plate method.

Regarding `O=C(NC(=S)Nc1ccc([N+](=O)[O-])cc1)c1cn(CCO)c2c(cc(O)c3ncccc32)c1=O`, the zone of inhibition at 100 µg/mL in the assay with Candida albicans came to 4 mm; in the assay with Bacillus subtilis, 9 mm; in the assay with Staphylococcus aureus it was 10 mm; in the assay on Escherichia coli, 12 mm; in the assay on Pseudomonas aeruginosa it was 10 mm.
Take `Cc1cccc(NC(=S)NC(=O)c2cn(CCO)c3c(cc(O)c4ncccc43)c2=O)c1`: the zone of inhibition at 100 µg/mL with Candida albicans was determined as 3 mm; in the assay with Bacillus subtilis, 8 mm; in the assay on Staphylococcus aureus it was 9 mm; with Escherichia coli, 9 mm; in the assay on Pseudomonas aeruginosa, 9 mm.
As for `O=C(NC(=S)Nc1cccc(Cl)c1)c1cn(CCO)c2c(cc(O)c3ncccc32)c1=O`, the zone of inhibition at 100 µg/mL in the assay on Candida albicans was 3 mm; in the assay with Bacillus subtilis, 10 mm; with Staphylococcus aureus it was 9 mm; in the assay on Escherichia coli it was 10 mm; in the assay with Pseudomonas aeruginosa, 9 mm.
For the compound `O=C(NC(=S)Nc1ccc(O)cc1)c1cn(CCO)c2c(cc(Cl)c3ncccc32)c1=O`, the zone of inhibition at 100 µg/mL in the assay on Candida albicans was 5 mm; with Bacillus subtilis, 11 mm; in the assay on Staphylococcus aureus, 12 mm; in the assay with Escherichia coli, 12 mm; with Pseudomonas aeruginosa, 11 mm.
For `O=C(NC(=S)Nc1ccccc1[N+](=O)[O-])c1cn(CCO)c2c(cc(Cl)c3ncccc32)c1=O`, the zone of inhibition at 100 µg/mL in the assay on Candida albicans came out at 4 mm; in the assay on Bacillus subtilis, 9 mm; in the assay with Escherichia coli, 10 mm.
As for `O=C(NC(=S)Nc1ccc([N+](=O)[O-])cc1)c1cn(CCO)c2c(cc(Cl)c3ncccc32)c1=O`, the zone of inhibition at 100 µg/mL amounted to 5 mm in the assay with Candida albicans; 12 mm in the assay on Bacillus subtilis; 11 mm in the assay on Staphylococcus aureus; 10 mm in the assay with Escherichia coli; 9 mm with Pseudomonas aeruginosa.
As for `Cc1cccc(NC(=S)NC(=O)c2cn(CCO)c3c(cc(Cl)c4ncccc43)c2=O)c1`, the zone of inhibition at 100 µg/mL in the assay on Candida albicans amounted to 4 mm; in the assay on Bacillus subtilis, 9 mm; in the assay with Staphylococcus aureus it was 10 mm; with Escherichia coli, 11 mm; in the assay on Pseudomonas aeruginosa, 10 mm.
With `O=C(NC(=S)Nc1cccc(Cl)c1)c1cn(CCO)c2c(cc(Cl)c3ncccc32)c1=O`, the zone of inhibition at 100 µg/mL worked out at 3 mm in the assay on Candida albicans; 10 mm with Bacillus subtilis; 8 mm in the assay on Staphylococcus aureus; 9 mm in the assay on Escherichia coli; 9 mm with Pseudomonas aeruginosa.
`O=C(NC(=S)Nc1ccccc1)c1cn(CCO)c2c(cc(O)c3ncccc32)c1=O`: the zone of inhibition at 100 µg/mL is 4 mm with Candida albicans and 10 mm in the assay with Pseudomonas aeruginosa.
As to `O=C(NC(=S)Nc1cccc(O)c1)c1cn(CCO)c2c(cc(O)c3ncccc32)c1=O`, the zone of inhibition at 100 µg/mL in the assay on Candida albicans is 3 mm; in the assay with Bacillus subtilis, 10 mm; in the assay with Staphylococcus aureus, 8 mm; with Escherichia coli, 9 mm; in the assay on Pseudomonas aeruginosa it was 7 mm.
On the same counts, the results for `Cc1ccc(C)c(NS(=O)(=O)c2ccc(NC(=O)c3cn(CCO)c4c(cc(Cl)c5ncccc54)c3=O)cc2)c1` are 4 mm, 9 mm, 10 mm, 10 mm and 10 mm.
On the same counts, the results for `O=C(Nc1ccc(S(=O)(=O)Nc2ccccc2)cc1)c1cn(CCO)c2c(cc(O)c3ncccc32)c1=O` are 3 mm, 8 mm, 9 mm, 9 mm and 10 mm.
As for `O=C(Nc1ccc(S(=O)(=O)Nc2cccc(Cl)c2)cc1)c1cn(CCO)c2c(cc(O)c3ncccc32)c1=O`, the zone of inhibition at 100 µg/mL in the assay with Candida albicans is 3 mm; with Bacillus subtilis it was 9 mm; with Staphylococcus aureus, 8 mm; in the assay on Escherichia coli, 9 mm; in the assay with Pseudomonas aeruginosa, 8 mm.
Regarding `COc1ccc(NS(=O)(=O)c2ccc(NC(=O)c3cn(CCO)c4c(cc(O)c5ncccc54)c3=O)cc2)cc1`, the zone of inhibition at 100 µg/mL turned out to be 4 mm with Candida albicans; 11 mm with Bacillus subtilis; 10 mm with Staphylococcus aureus; 8 mm in the assay with Escherichia coli; 8 mm in the assay with Pseudomonas aeruginosa.
With `O=C(Nc1ccc(S(=O)(=O)Nc2ccc([N+](=O)[O-])cc2)cc1)c1cn(CCO)c2c(cc(O)c3ncccc32)c1=O`, the zone of inhibition at 100 µg/mL in the assay with Candida albicans was determined as 4 mm; with Bacillus subtilis it was 11 mm; in the assay with Staphylococcus aureus, 10 mm; in the assay on Escherichia coli it was 12 mm; in the assay on Pseudomonas aeruginosa, 10 mm.
Turning to `Cc1cccc(NS(=O)(=O)c2ccc(NC(=O)c3cn(CCO)c4c(cc(O)c5ncccc54)c3=O)cc2)c1`, the zone of inhibition at 100 µg/mL was determined as 5 mm in the assay on Candida albicans; 12 mm in the assay on Bacillus subtilis; 11 mm with Staphylococcus aureus; 10 mm with Escherichia coli; 11 mm with Pseudomonas aeruginosa.
For the compound `Cc1ccc(C)c(NS(=O)(=O)c2ccc(NC(=O)c3cn(CCO)c4c(cc(O)c5ncccc54)c3=O)cc2)c1`, the zone of inhibition at 100 µg/mL amounted to 4 mm in the assay on Candida albicans; 9 mm with Bacillus subtilis; 11 mm in the assay with Staphylococcus aureus; 10 mm in the assay with Escherichia coli; 11 mm with Pseudomonas aeruginosa.
`O=C(NC(=S)Nc1ccccc1)c1cn(CCO)c2c(cc(Cl)c3ncccc32)c1=O`: the zone of inhibition at 100 µg/mL in the assay with Candida albicans worked out at 3 mm; in the assay with Bacillus subtilis, 11 mm; in the assay on Staphylococcus aureus, 9 mm; with Escherichia coli, 10 mm; with Pseudomonas aeruginosa, 9 mm.
`O=C(Nc1ccccc1[N+](=O)[O-])c1cn(CCO)c2c(cc(O)c3ncccc32)c1=O`: the zone of inhibition at 100 µg/mL was found to be 4 mm with Candida albicans; 11 mm with Bacillus subtilis; 10 mm with Staphylococcus aureus; 9 mm in the assay with Escherichia coli; 9 mm in the assay on Pseudomonas aeruginosa.
Turning to `Cc1ccccc1NC(=O)c1cn(CCO)c2c(cc(O)c3ncccc32)c1=O`, the zone of inhibition at 100 µg/mL in the assay with Candida albicans stood at 0 mm; in the assay on Escherichia coli it was 9 mm.
Consider `O=C(Nc1ccc(S(=O)(=O)Nc2cccc(Cl)c2)cc1)c1cn(CCO)c2c(cc(Cl)c3ncccc32)c1=O`, for which the zone of inhibition at 100 µg/mL was determined as 4 mm in the assay with Candida albicans; 9 mm in the assay with Bacillus subtilis; 11 mm in the assay on Staphylococcus aureus; 10 mm with Escherichia coli; 10 mm in the assay with Pseudomonas aeruginosa.
On to `COc1ccccc1NS(=O)(=O)c1ccc(NC(=O)c2cn(CCO)c3c(cc(Cl)c4ncccc43)c2=O)cc1`, for which the zone of inhibition at 100 µg/mL in the assay on Escherichia coli and in the assay with Pseudomonas aeruginosa was 5 mm throughout.
Consider `O=C(Nc1ccc(S(=O)(=O)Nc2ccc([N+](=O)[O-])cc2)cc1)c1cn(CCO)c2c(cc(Cl)c3ncccc32)c1=O`, for which the zone of inhibition at 100 µg/mL with Candida albicans was 3 mm; in the assay on Bacillus subtilis, 10 mm; in the assay with Staphylococcus aureus, 9 mm; with Escherichia coli, 11 mm; in the assay with Pseudomonas aeruginosa it was 9 mm.
`Cc1ccccc1NS(=O)(=O)c1ccc(NC(=O)c2cn(CCO)c3c(cc(Cl)c4ncccc43)c2=O)cc1`: the zone of inhibition at 100 µg/mL was 3 mm in the assay on Candida albicans; 10 mm in the assay on Bacillus subtilis; 9 mm with Staphylococcus aureus; 9 mm in the assay on Escherichia coli; 9 mm in the assay on Pseudomonas aeruginosa.
As to `O=C(Nc1ccccc1)c1cn(CCO)c2c(cc(Cl)c3ncccc32)c1=O`, the zone of inhibition at 100 µg/mL in the assay on Candida albicans was found to be 5 mm; in the assay with Staphylococcus aureus, 12 mm; with Escherichia coli, 12 mm.
As to `O=C(Nc1ccc(Cl)cc1)c1cn(CCO)c2c(cc(Cl)c3ncccc32)c1=O`, the values for the zone of inhibition at 100 µg/mL in the assay with Bacillus subtilis, in the assay with Escherichia coli and in the assay with Pseudomonas aeruginosa were 7 mm, 6 mm and 6 mm, respectively.
Consider `O=C(Nc1ccccc1[N+](=O)[O-])c1cn(CCO)c2c(cc(Cl)c3ncccc32)c1=O`, for which the figures for the zone of inhibition at 100 µg/mL with Candida albicans and in the assay with Bacillus subtilis were 4 mm and 10 mm, respectively.
As to `O=C(Nc1ccc([N+](=O)[O-])cc1)c1cn(CCO)c2c(cc(Cl)c3ncccc32)c1=O`, the zone of inhibition at 100 µg/mL turned out to be 4 mm in the assay with Candida albicans and 9 mm in the assay with Escherichia coli.
For `Cc1cccc(NC(=O)c2cn(CCO)c3c(cc(Cl)c4ncccc43)c2=O)c1`, the zone of inhibition at 100 µg/mL stood at 4 mm with Candida albicans; 9 mm in the assay on Bacillus subtilis; 10 mm in the assay with Staphylococcus aureus; 10 mm with Escherichia coli; 10 mm in the assay with Pseudomonas aeruginosa.
Take `O=C(Nc1ccc(Cl)cc1)c1cn(CCO)c2c(cc(O)c3ncccc32)c1=O`: the zone of inhibition at 100 µg/mL in the assay on Candida albicans was found to be 5 mm; in the assay on Bacillus subtilis, 10 mm; with Escherichia coli, 10 mm.
For `COc1ccc(NC(=O)c2cn(CCO)c3c(cc(O)c4ncccc43)c2=O)cc1`, the zone of inhibition at 100 µg/mL was 5 mm with Candida albicans; 12 mm in the assay on Bacillus subtilis; 10 mm with Staphylococcus aureus; 11 mm in the assay on Escherichia coli; 10 mm in the assay with Pseudomonas aeruginosa.
Turning to `C[C@@H]1[C@H](O)[C@@H](C)/C=C/C=C/C=C/C=C/C=C/C=C/C=C/[C@H](O[C@@H]2O[C@H](C)[C@@H](O)[C@H](N)[C@@H]2O)C[C@@H]2O[C@](O)(C[C@@H](O)C[C@@H](O)[C@H](O)CC[C@@H](O)C[C@@H](O)CC(=O)O[C@H]1C)C[C@H](O)[C@H]2C(=O)O` [AMPHOTERICIN B], the zone of inhibition at 100 µg/mL with Candida albicans was 9 mm.
Take `O=C(O)c1cn(C2CC2)c2cc(N3CCNCC3)c(F)cc2c1=O` [CIPROFLOXACIN]: the values for the zone of inhibition at 100 µg/mL in the assay on Bacillus subtilis, in the assay with Staphylococcus aureus and in the assay with Pseudomonas aeruginosa were 16 mm, 17 mm and 17 mm, respectively.

(Values after ChEMBL document CHEMBL3044825, “Synthesis and in vitro microbial activities of amides of pyridoquinolone” (2011).)
